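Cells were grown in 96-well plates and exposed to each compound for 48 hours at five concentrations; endpoints were interpolated linearly between bracketing concentrations, or set to the highest concentration if not reached. Here, GI50 denotes the concentration required for 50% inhibition of growth.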 Active and inactive are the calls of the source. No stated cut-off is given here; in the data, active = GI50 up to about 1.1 µM and inactive = higher.
Assays:
Test in all cases: DTP human tumour cell line panel, 48 h
MDA-MB-231 = system: MDA-MB-231
MDA-MB-435 = system: MDA-MB-435
LOX IMVI = system: LOX IMVI
NCI-H23 = system: NCI-H23
MDA-N = system: MDA-N
HL-60 = system: HL-60
SF-539 = system: SF-539
RPMI-8226 = system: RPMI-8226
HCC 2998 = system: HCC 2998
SK-MEL-2 = system: SK-MEL-2
MCF7 = system: MCF7
SNB-19 = system: SNB-19
T47D = system: T47D
M14 = system: M14
CAKI-1 = system: CAKI-1
SW-620 = system: SW-620
DU-145 = system: DU-145
SNB-75 = system: SNB-75
UACC-257 = system: UACC-257
IGROV-1 = system: IGROV-1

Compound | GI50 (MDA-MB-231) | GI50 (MDA-MB-435) | GI50 (LOX IMVI) | GI50 (NCI-H23) | GI50 (MDA-N) | GI50 (HL-60) | GI50 (SF-539) | GI50 (RPMI-8226) | GI50 (HCC 2998) | GI50 (SK-MEL-2) | GI50 (MCF7) | GI50 (SNB-19) | GI50 (T47D) | GI50 (M14) | GI50 (CAKI-1) | GI50 (SW-620) | GI50 (DU-145) | GI50 (SNB-75) | GI50 (UACC-257) | GI50 (IGROV-1)
Cc1cccc(/N=N/c2c(C)nn(C(=O)CC(=O)Nc3ccc(Cl)cc3)c2C)c1 | 20.7 µM (inactive) | > 100 µM (inactive) | 95.5 µM (inactive) | > 100 µM (inactive) | 83.8 µM (inactive) | 36 µM (inactive) | > 100 µM (inactive) | > 100 µM (inactive) | > 100 µM (inactive) | 67.5 µM (inactive) | > 100 µM (inactive) | 80.5 µM (inactive) | 64.3 µM (inactive) | 48.3 µM (inactive) | > 100 µM (inactive) | > 100 µM (inactive) | > 100 µM (inactive) | 9.51 µM (inactive) | > 100 µM (inactive) | –
COc1ccc(C(=O)/C=C/c2ccc3c(c2)OCO3)c(OCc2ccccc2)c1 | > 70.1 µM (inactive) | 25.5 µM (inactive) | 7.89 µM (inactive) | 24.3 µM (inactive) | 11.7 µM (inactive) | 2.01 µM (inactive) | 32.7 µM (inactive) | 4.45 µM (inactive) | 8.28 µM (inactive) | > 57.1 µM (inactive) | 6.22 µM (inactive) | > 100 µM (inactive) | > 43.5 µM (inactive) | > 65.5 µM (inactive) | 11.8 µM (inactive) | 8.71 µM (inactive) | > 39.2 µM (inactive) | > 55.1 µM (inactive) | > 63 µM (inactive) | 17.7 µM (inactive)
COc1ccc(/C=C/c2cnnc3ccccc23)cc1OC | > 10 µM (inactive) | > 10 µM (inactive) | > 10 µM (inactive) | > 10 µM (inactive) | > 10 µM (inactive) | > 10 µM (inactive) | > 10 µM (inactive) | > 10 µM (inactive) | > 10 µM (inactive) | > 10 µM (inactive) | > 10 µM (inactive) | > 10 µM (inactive) | > 10 µM (inactive) | > 10 µM (inactive) | > 10 µM (inactive) | > 10 µM (inactive) | > 10 µM (inactive) | 5.46 µM (inactive) | > 10 µM (inactive) | > 10 µM (inactive)
Cc1c(C)c2c(c(N)c1C#N)C(=O)N(CCN1CCNCC1)C2=O | 19.3 µM (inactive) | 33.5 µM (inactive) | 20.1 µM (inactive) | – | 40.9 µM (inactive) | 28.4 µM (inactive) | 32.8 µM (inactive) | 38 µM (inactive) | 31.6 µM (inactive) | 35.9 µM (inactive) | 34.8 µM (inactive) | 49.3 µM (inactive) | 36.4 µM (inactive) | 33.8 µM (inactive) | 42 µM (inactive) | 31.6 µM (inactive) | 29.4 µM (inactive) | 26.2 µM (inactive) | 37.7 µM (inactive) | 34.7 µM (inactive)
CC1=NN(c2cccc(Cl)c2)C2(SCC(=O)N2c2nc3ccccc3s2)/C1=C\c1ccccc1 (stereo not given) | 24.4 µM (inactive) | 18.3 µM (inactive) | 25.5 µM (inactive) | 20.2 µM (inactive) | 20.9 µM (inactive) | 30.1 µM (inactive) | 26.4 µM (inactive) | 18.7 µM (inactive) | 14.2 µM (inactive) | 22.5 µM (inactive) | 23.6 µM (inactive) | – | 27.1 µM (inactive) | 23.7 µM (inactive) | 20 µM (inactive) | 19.6 µM (inactive) | 22 µM (inactive) | 86.5 µM (inactive) | 21.9 µM (inactive) | 17.9 µM (inactive)
Nc1cccc(-c2cc(O)c3cc4c(cc3n2)OCO4)c1 | 1.73 µM (inactive) | 0.16 µM (active) | 1.23 µM (inactive) | 2.86 µM (inactive) | 0.216 µM (active) | 1.93 µM (inactive) | 0.544 µM (active) | 6.35 µM (inactive) | 1.83 µM (inactive) | 0.45 µM (active) | 0.592 µM (active) | 2.19 µM (inactive) | > 100 µM (inactive) | 0.993 µM (active) | 3.68 µM (inactive) | 0.519 µM (active) | 0.64 µM (active) | 0.0995 µM (active) | – | –

Reference: ChEMBL document CHEMBL1201862, “PubChem BioAssay data set” (2004)
